Measurements published in patent US20230009608A1, “GRK2 INHIBITORS AND USES THEREOF” (Cygnal Therapeutics, Inc., priority 2020, published 2023).
Read-outs that look alike come from different tables or passages of the source.

Legend:
GRK2 = target: T1, GRK2 (Homo sapiens, UniProt P25098); experiment: GRK2 Inhibition Assay (TR-FRET, Example 7); assay type: biochemical
T1 construct: purchased SignalChem A14-10G
T1 sequence (P25098 1-689): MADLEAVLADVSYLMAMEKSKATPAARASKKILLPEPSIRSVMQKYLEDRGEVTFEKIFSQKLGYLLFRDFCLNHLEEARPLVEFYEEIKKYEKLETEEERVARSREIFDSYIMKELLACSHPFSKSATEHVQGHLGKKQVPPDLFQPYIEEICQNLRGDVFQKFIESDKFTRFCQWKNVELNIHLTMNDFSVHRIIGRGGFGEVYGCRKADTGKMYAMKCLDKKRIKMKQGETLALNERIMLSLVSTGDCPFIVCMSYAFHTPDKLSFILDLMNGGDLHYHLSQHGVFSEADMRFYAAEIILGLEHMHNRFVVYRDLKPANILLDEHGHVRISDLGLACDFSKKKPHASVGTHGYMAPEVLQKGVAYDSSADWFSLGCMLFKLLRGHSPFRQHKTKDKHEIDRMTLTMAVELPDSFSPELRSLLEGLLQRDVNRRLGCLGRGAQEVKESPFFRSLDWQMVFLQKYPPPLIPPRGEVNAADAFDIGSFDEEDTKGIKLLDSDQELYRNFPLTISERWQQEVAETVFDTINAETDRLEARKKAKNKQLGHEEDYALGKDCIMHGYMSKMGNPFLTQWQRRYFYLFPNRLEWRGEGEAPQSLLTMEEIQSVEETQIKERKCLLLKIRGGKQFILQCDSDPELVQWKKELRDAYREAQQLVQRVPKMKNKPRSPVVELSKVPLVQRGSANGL
Procedure: Enzyme GRK2 (1 nM final concentration) was diluted in 25 mMv HEPES, 10 mM MgCl2, 2 mM DTT, 0.01% Tween-20, and 1 mM EGTA. Then the GRK2 mixture was added into ProxiPlate-384 white plate and pre-incubated for 30 min with test compounds at room temperature. ATP (7 μM final concentration) and Ulight TopoIIα (50 nM final concentration) were added into the assay plate to initiate the reaction and the mixture was incubated at room temperature for 90 min. Then, Eu anti-TopoIIα (0.12 nM final concentration), BSA (0.01% final concentration), and EDTA (11 mMv final concentration) in LANCE assay buffer were added into each well. After 60 min incubation time at room temperature, TR-FRET signal was measured by EnVision plate reader.

[1] = system: PAXF1657 control empty vector cell line; experiment: 7-day proliferation assay, PAXF1657 control empty vector cell line (Example 9); assay type: cell-based; settings: 168 h; Cell Line: PAXF1657 empty vector (EV) cell line; 7-day; read-out: C: 7-day proliferation assay: IC50 GeoMean
In short: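 Read-out is CellTiter-Glo luminescence after 7 days of continuous exposure, with compound re-dosed in fresh medium at day 3. Cells were seeded at 500/well and treated across 30 μM-0.0002 μM (10 points, 0.3% DMSO); baseline viability plates were read at compound addition.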

[2] = Enzyme Assay B, TR-FRET (Example 7), read-out: B: Enzymatic GRK2: IC50 (nM) (Example 7)
[3] = TR-FRET GRK2 enzyme assay, read-out: B: Enzymatic GRK2: IC50 (nM) (Example 7)

Row | Compound | IC50 (GRK2; [2]) [nM] | IC50 [1] [nM] | IC50 (GRK2; [3]) [nM] | IC50 (GRK2) [nM]
1 | CCCn1c(CNc2cncc(C(=O)NCc3ccccc3C(F)(F)F)c2)nnc1-c1ccncn1 | 30 | > 30000 | – | –
2 | O=C(N[C@H]1COc2ccccc21)c1cccc(NCc2nnc(-c3ccncn3)n2CCO)c1 | < 0.51 | 107 | – | –
3 | CCc1cnccc1CNC(=O)c1cccc(NCc2nnc(-c3ccncc3Cl)n2C)c1 | 79 | > 30000 | – | –
4 | O=C(NCc1cccc(F)c1)c1cccc(NCc2nnc(-c3ccncc3)[nH]2)c1 | 6.1 | 14500 | – | –
5 | CCc1cnccc1CNC(=O)c1cccc(NCc2nnc(-c3ccncn3)n2CCCNC)c1 | 94 | > 30000 | – | –
6 | Cn1c(CNc2cccc(C(=O)N[C@H](C#N)c3ccccc3F)c2)nnc1-c1ccncn1 | – | 82.6 | 6.8 | –
7 | Cn1c(CNc2cccc(C(=O)N[C@H]3CCOc4ccc(F)cc43)c2)nnc1-c1ccncn1 | 24 | > 30000 | – | –
8 | O=C(N[C@H]1CCOc2ccccc21)c1cccc(NCc2nnc3n2CCOc2cnccc2-3)c1 | 2.6 | > 30000 | – | –
9 | O=C(NCCc1ccccc1OS(=O)(=O)F)c1cccc(NCc2nnc(-c3ccncc3)[nH]2)c1 | – | 13100 | – | 73
10 | O=C(NCc1cnc2ccccn12)c1cccc(NCc2nnc(-c3ccncn3)n2CCO)c1 | < 0.51 | 580 | – | –
11 | Cn1c(CNc2cccc(C(=O)N[C@@H](C#N)c3c(F)cccc3Cl)c2)nnc1-c1ccncn1 | – | – | 5.1 | –
12 | Cn1c(CNc2cc(C(=O)N[C@@H]3CCOc4c(Cl)cccc43)ccn2)nnc1-c1ccncn1 | 20 | 2070 | – | –
13 | O=C(NC1(c2ccccc2)CCOCC1)c1cccc(NCc2nnc(-c3ccncc3)n2CCO)c1 | 130 | – | – | –
14 | O=C(NCc1ccc(OS(=O)(=O)F)cc1)c1cccc(NCc2nnc(-c3ccncc3)[nH]2)c1 | – | > 30000 | – | 20
15 | COc1ccc(CNC(=O)c2cccc(NCc3nnc(-c4ccncc4)[nH]3)c2)c(F)c1 | 15 | 18800 | – | –
16 | O=C(NCc1c(F)cccc1F)c1ccnc(NCc2nnc(-c3ccncc3)[nH]2)c1 | 34 | > 30000 | – | –
17 | O=C(NC1(c2ccccc2)CCOCC1)c1cccc(NCc2nnc(-c3ccncc3)[nH]2)c1 | 330 | – | – | –
18 | COc1ncccc1CNC(=O)c1cccc(NCc2nnc(-c3ccncn3)n2CCO)c1 | 2.4 | – | – | –
19 | CNCCCn1c(CNc2cccc(C(=O)NCc3c(F)cccc3F)c2)nnc1-c1ccncn1 | 660 | – | – | –
20 | O=C(NCc1cccnc1C(F)(F)F)c1cccc(NCc2nnc(-c3ccncc3)[nH]2)c1 | 13 | > 30000 | – | –
21 | CCOc1ccccc1CNC(=O)c1cccc(NCc2nnc3n2CCOc2cnccc2-3)c1 | 9.1 | 2320 | – | –
22 | Cn1c(CNc2cc(C(=O)NCc3cccnc3C(F)(F)F)ccn2)nnc1-c1ccncn1 | 11 | > 30000 | – | –

Row | Compound | IC50 (GRK2; [2]) [nM] | IC50 [1] [nM] | IC50 (GRK2; [3]) [nM] | IC50 (GRK2) [nM]
23 | CCc1cnccc1CNC(=O)c1cccc(NCc2nnc(-c3ccncn3)n2CCO)c1 | 0.82 | – | – | –
24 | COc1cccc(OC)c1CNC(=O)c1cccc(NCc2nnc(-c3ccncc3)[nH]2)c1 | 1.4 | 981 | – | –
25 | Cn1c(CNc2cccc(C(=O)N[C@@H]3CCOc4cc(C(F)(F)F)ccc43)c2)nnc1-c1ccncn1 | 56 | 93.2 | – | –
26 | CNCCn1c(CNc2cccc(C(=O)NCc3c(F)cccc3F)c2)nnc1-c1ccncn1 | 1400 | – | – | –
27 | CNCCCn1c(CNc2cccc(C(=O)NCc3cccnc3C(F)(F)F)c2)nnc1-c1ccncn1 | 280 | – | – | –
28 | Cn1c(CNc2cccc(C(=O)N[C@@H]3CCOc4c3ccc(F)c4F)c2)nnc1-c1ccncn1 | 3.3 | 178 | – | –
29 | Cc1ccc2c(c1)[C@@H](NC(=O)c1cccc(NCc3nnc(-c4ccncn4)n3C)c1)CCO2 | 210 | > 30000 | – | –
30 | C#Cc1ccc(OS(=O)(=O)F)c(CNC(=O)c2cccc(NCc3nnc(-c4ccncc4)[nH]3)c2)c1 | 13 | > 7500 | – | –
31 | Cc1cccc2ncc(CNC(=O)c3ccnc(NCc4nnc(-c5ccncn5)n4C)c3)n12 | 24 | > 30000 | – | –
32 | COc1ccccc1[C@H](NC(=O)c1cccc(NCc2nnc(-c3ccncn3)n2C)c1)c1nccn1C | – | – | 100 | –
33 | COc1cccc(OC)c1CNC(=O)c1cccc(NCc2nnc3n2CCOc2cnccc2-3)c1 | 6.7 | > 30000 | – | –
34 | Cn1c(CNc2cccc(C(=O)N[C@H](C#N)c3ccccc3C(F)(F)F)c2)nnc1-c1ccncn1 | – | 54.4 | 3.5 | –
35 | O=C(NCc1cccnc1C(F)(F)F)c1cccc(NCc2nnc(-c3ccncn3)n2CCO)c1 | 0.98 | > 30000 | – | –
36 | O=C(NCc1cccc2c1OCC2)c1cccc(NCc2nnc(-c3ccncc3)n2CCO)c1 | 6.3 | 6080 | – | –
37 | O=C(N[C@@H]1CCOc2c(Cl)cccc21)c1cccc(NCc2nnc(-c3ccncn3)n2CCO)c1 | 4.6 | 123 | – | –
38 | CCc1cnccc1CNC(=O)c1cccc(NCc2nnc(-c3ccncn3)n2[C@H]2CCC[C@@H](NC)C2)c1 | – | – | 3900 | –
39 | C[C@@H](NC(=O)c1cccc(NCc2nnc(-c3ccncn3)n2CCO)c1)c1ncccc1Cl | < 0.51 | 803 | – | –
40 | CCc1cnccc1CNC(=O)c1ccnc(NCc2nnc(-c3ccncn3)n2C)c1 | 15 | – | – | –
41 | Cn1c(CNc2cccc(C(=O)N[C@@H]3CC(C)(C)Oc4ccccc43)c2)nnc1-c1ccncn1 | 45 | 9090 | – | –
42 | Cc1cccc([C@H](CO)NC(=O)c2ccnc(NCc3nnc(-c4ccncn4)n3C)c2)c1 | 16 | > 30000 | – | –
43 | CN(Cc1cccnc1C(F)(F)F)C(=O)c1cccc(NCc2nnc(-c3ccncn3)n2C)c1 | > 10000 | – | – | –
44 | Cn1c(CNc2cccc(C(=O)N[C@H]3CCOc4ccccc43)c2)nnc1-c1ccncc1Cl | 170 | – | – | –

Row | Compound | IC50 (GRK2; [2]) [nM] | IC50 [1] [nM] | IC50 (GRK2; [3]) [nM] | IC50 (GRK2) [nM]
45 | COc1ccc([C@@H](C#N)NC(=O)c2cccc(NCc3nnc(-c4ccncn4)n3C)c2)c(OC)c1 | – | – | 7.8 | –
46 | CCc1cnccc1CNC(=O)c1cccc(NCc2nnc(-c3ccncn3)n2[C@H]2CC[C@@H](NC)C2)c1 | – | – | 190 | –
47 | Cn1c(CNc2cccc(C(=O)N[C@H](C#N)c3ccccc3Br)c2)nnc1-c1ccncn1 | – | – | 4.5 | –
48 | O=C(NCc1c(F)cccc1F)c1cccc(NCc2nnc(-c3ccncn3)n2CCCO)c1 | 47 | – | – | –
49 | Cn1c(CNc2cccc(C(=O)N[C@H]3COc4c(Cl)cccc43)c2)nnc1-c1ccncn1 | – | – | 7.8 | –
50 | Cn1c(CNc2cccc(C(=O)N[C@H](C#N)c3c(F)cccc3Cl)c2)nnc1-c1ccncn1 | – | – | 5.7 | –
51 | Cn1c(CNc2cccc(C(=O)N[C@@H](C#N)c3ccccc3C(F)(F)F)c2)nnc1-c1ccncn1 | – | – | 3.5 | –
52 | Cn1c(CNc2cccc(C(=O)N[C@@H](C#N)c3ccccc3Br)c2)nnc1-c1ccncn1 | – | – | 4.1 | –
53 | COc1ccc([C@H](C#N)NC(=O)c2cccc(NCc3nnc(-c4ccncn4)n3C)c2)c(OC)c1 | – | – | 68 | –
54 | Cn1c(CNc2cccc(C(=O)N[C@@H]3COc4c(Cl)cccc43)c2)nnc1-c1ccncn1 | – | – | 28 | –
55 | CCc1cnccc1CNC(=O)c1cccc(NCc2nnc(-c3ccncn3)n2[C@@H]2CC[C@@H](NC)C2)c1 | – | – | 230 | –
56 | CCc1cnccc1CNC(=O)c1cccc(NCc2nnc(-c3ccncn3)n2CCCO)c1 | 5.5 | – | – | –
57 | CNc1cc(-c2nnc(CNc3cccc(C(=O)NCc4c(F)cccc4F)c3)n2C)ncn1 | 4400 | – | – | –
58 | O=C(NCCc1cccc(OS(=O)(=O)F)c1)c1cccc(NCc2nnc(-c3ccncc3)[nH]2)c1 | – | – | – | 210
59 | O=C(NC1(c2ccccc2)CCOCC1)c1cccc(NCc2nnc(-c3ccncn3)n2CCO)c1 | 6.3 | – | – | –
60 | CCc1cnccc1CNC(=O)c1cccc(NCc2nnc(-c3ccncn3)n2[C@@H]2CCC[C@@H](NC)C2)c1 | – | – | 1000 | –
61 | CCc1cnccc1CNC(=O)c1cccc(NCc2nnc(-c3ccncn3)n2[C@@H]2CC[C@H](NC)C2)c1 | – | – | 110 | –
62 | Cn1c(CNc2cccc(C(=O)N[C@H]3COc4ccccc43)c2)nnc1-c1ccncn1 [drawing 850] | – | – | 3.4 | –
63 | CCc1cnccc1CNC(=O)c1cccc(NCc2nnc(-c3ccncn3)n2[C@H]2CC[C@H](NC)C2)c1 | – | – | 920 | –
64 | Cn1c(CNc2cc(C(=O)NCc3cccc4c3OCC4)ccn2)nnc1-c1ccncn1 | 12 | – | – | –
65 | CN(C)CCCn1c(CNc2cccc(C(=O)NCc3c(F)cccc3F)c2)nnc1-c1ccncn1 | 170 | – | – | –
